Data: patent US8658801B2, “Pesticides containing a bicyclic bisamide structure” (Syngenta Crop Protection, LLC, priority 2006, dated 2014)

Columns and labels:
[1] = test system: Myzus persicae (Green Peach Aphid); assay: Example B5: activity against Myzus persicae, mixed population, feeding/residual contact, preventive (sunflower leaf discs); conditions: foliar, 144 h, read-out: activity
[2] = test system: Plutella xylostella (Diamond Back Moth); assay: Example B3: Plutella xylostella, larvicide, feeding/residual contact, preventive (artificial diet MTP); assay type: in vivo; conditions: 120 h, 5 days incubation, L2 larvae
Method: Plutella xylostella (Diamond Back Moth)
(§1) (Larvicide, Feeding/Residual Contact Activity, Preventive)
24-well microtiter plate (MTP) with artificial diet is treated with test solutions by pipetting. After drying, the MTP's are infested with larvae (L2)(10-15 per well). After an incubation period of 5 days, samples are checked for larval mortality, antifeedant and growth regulation. In this test, compounds listed in Table P above show good activity. In particular compounds P.1, P.2, P.3, P.4, P.5, P.6, P.7, P.9, P.10, P.11, P.12, P.13, P.15, P.16, P.17, P.18, P.19, P.20, P.21, P.22, P.23, P.25, P.26, P.27, P.28, P.29, P.30, P.31, P.32, P.33, P.34, P.35, P.36, P.37, P.38, P.39, P.40, P.41, P.42, P.43, P.44, P.46, P.47, P.48, P.49, P.50, P.51, P.52, P.53, P.54, P.55, P.56, P.57, P.58, P.59, P.60, P.61, P.63, P.64, P.67, P.68, P.69 P.70, P.72, P.74, P.77, P78 and P.79 show an activity of over 80% at a concentration of 400 ppm.

[3] = test system: Diabrotica balteata (Corn Root Worm); assay: Example B4: Diabrotica balteata, larvicide, feeding/residual contact, preventive; assay type: in vivo; conditions: 120 h, 5 days incubation, L2 larvae
Method: Diabrotica balteata (Corn Root Worm)
as §1
After drying, the MTP's are infested with larvae (L2)(6-10 per well). After an incubation period of 5 days, samples are checked for larval mortality, antifeedant and growth regulation. In this test, compounds listed in Table P above show good activity. In particular compounds P.1, P.2, P.5, P.6, P.10, P.11, P.12, P.13, P.15, P.16, P.17, P.18, P.19, P.24, P.25, P.27, P.28, P.29, P.30, P.31, P.33, P.34, P.35, P.37, P.38, P.39, P.42, P.43, P.44, P.45, P.46, P.47, P.48, P.49, P.50, P.52, P.53, P.65, P.67, P.68, P.69, P.70, P.71, P.72, P.75, P.78, and P.79 show an activity of over 80% at a concentration of 400 ppm.

[4] = test system: Heliothis virescens (Tobacco Budworm); assay: Example B2: activity against Heliothis virescens, ovo-larvicide, feeding/contact, curative; assay type: in vivo; conditions: 96 h, 4 days incubation, eggs 0-24 h old
Method: Activity Against Heliothis virescens (Tobacco Budworm)
(Ovo-Larvicide, Feeding/Contact Activity, Curative)
Eggs (0-24 h old) are placed in 24-well microtiter plate on artificial diet and treated with test solutions by pipetting. After an incubation period of 4 days, samples are checked for egg mortality, larval mortality, and growth regulation.

[5] = test system: Spodoptera littoralis (Egyptian Cotton Leafworm); assay: Example B1: activity against Spodoptera littoralis, larvicide, feeding/residual contact, preventive (cotton leaf discs); assay type: in vivo; conditions: foliar, 72 h, 3 days after treatment, L1 larvae
Excerpt: Activity Against Spodoptera littoralis (Egyptian Cotton Leafworm)
as §1
The samples are checked for mortality, repellent effect, feeding behaviour, and growth regulation 3 days after treatment. In this test, compounds listed in Table P above show good activity. In particular compounds P.1, P.2, P.3, P.4, P.5, P.6, P.7, P.9, P.10, P.11, P.12, P.13, P.15, P.16, P.17, P.18, P.19, P.20, P.21, P.22, P.23, P.24, P.25, P.26, P.27, P.28, P.29, P.30, P.31, P.32, P.33, P.34, P.35, P.36, P.37, P.38, P.39, P.40, P.41, P.42, P.43, P.44, P.45, P.46, P.47, P.48, P.49, P.50, P.51, P.52, P.53, P.54, P.55, P.56, P.57, P.58, P.59, P.60, P.61, P.63, P.64, P.67, P.68 and P.70 show an activity of over 80% at a concentration of 400 ppm.

[6] = test system: Thrips tabaci (Onion Thrips); assay: Example B7: activity against Thrips tabaci, mixed population, feeding/residual contact, preventive; conditions: 144 h, read-out: activity
[7] = test system: Myzus persicae (Green Peach Aphid); assay: Example B6: activity against Myzus persicae, mixed population, systemic/feeding, curative (pea seedling roots); conditions: 144 h, read-out: activity

Measured: pest or weed control at 400 ppm

O=C(NCC1CC1)c1c(NC(=O)c2cc(C(F)(F)F)nn2-c2ncccc2Cl)ccc2cc[nH]c12 [P.2]
not listed: [6] | [7]
> 80%: all other assays above

CC(C)NC(=O)c1c(NC(=O)c2cc(C(F)(F)F)nn2-c2ncccc2Cl)ccc2cn[nH]c12 [P.3]
> 80%: [6] | [2] | [4] | [5]

CNC(=O)c1c(NC(=O)c2cc(C(F)(F)F)nn2-c2ncccc2Cl)ccc2cn[nH]c12 [P.6]
> 80%: [2] | [3] | [4] | [5]

CC(C)(CS(C)(=O)=O)NC(=O)c1c(NC(=O)c2cc(C(F)(F)F)nn2-c2ncccc2Cl)ccc2cn[nH]c12 [P.9]
> 80%: [1] | [2] | [4] | [5]

CC(C)NC(=O)c1c(NC(=O)c2cc(C(F)(F)F)nn2-c2ncccc2Cl)c(Br)cc2cn[nH]c12 [P.16]
not listed: [7]
> 80%: all other assays above

CC(C)NC(=O)c1c(NC(=O)c2cc(C(F)(F)F)nn2-c2ncccc2Cl)c(C#N)cc2cn[nH]c12 [P.25]
not listed: [7]
> 80%: all other assays above

N#Cc1cc2cn[nH]c2c(C(=O)NC2(C3CC3)CC2)c1NC(=O)c1cc(C(F)(F)F)nn1-c1ncccc1Cl [P.26]
> 80%: [6] | [2] | [4] | [5]

COc1cc(C(=O)Nc2c(Br)cc3cn[nH]c3c2C(=O)NCC2CC2)n(-c2ncccc2Cl)n1 [P.36]
not listed: [3] | [6]
> 80%: all other assays above

CCNC(=O)c1c(NC(=O)c2cc(OC)nn2-c2ncccc2Cl)c(Br)cc2cn[nH]c12 [P.50]
> 80%: all assays above

COc1cc(C(=O)Nc2c(Br)cc3cn[nH]c3c2C(=O)NC(C)(C)CSC)n(-c2ncccc2Cl)n1 [P.51]
not listed: [3]
> 80%: all other assays above

COc1cc(C(=O)Nc2c(C#N)cc3cn[nH]c3c2C(=O)NC(C)C)n(-c2ncccc2Cl)n1 [P.55]
not listed: [3]
> 80%: all other assays above

COc1cc(C(=O)Nc2c(Cl)cc3cn[nH]c3c2C(=O)NC(C)(C)CSC)n(-c2ncccc2Cl)n1 [P.57]
not listed: [3]
> 80%: all other assays above

CCNC(=O)c1c(NC(=O)c2cc(OC)nn2-c2ncccc2Cl)c(Cl)cc2cn[nH]c12 [P.58]
not listed: [3]
> 80%: all other assays above

COc1cc(C(=O)Nc2c(Cl)cc3cn[nH]c3c2C(=O)NC2(C)CSC2)n(-c2ncccc2Cl)n1 [P.59, 5-chloro-6-{[2-(3-chloro-pyridin-2-yl)-5-methoxy-2H-pyrazole-3-carbonyl]-amino}-1H-indazole-7-carboxylic acid (3-methyl-thietan-3-yl)-amide]
not listed: [3]
> 80%: all other assays above

COc1cc(C(=O)Nc2c(Cl)cc3c(Br)n[nH]c3c2C(=O)NC(C)C)n(-c2ncccc2Cl)n1 [P.63, 3-bromo-5-chloro-6-{[2-(3-chloro-pyridin-2-yl)-5-methoxy-2H-pyrazole-3-carbonyl]-amino}-1H-indazole-7-carboxylic acid isopropylamide]
> 80%: [6] | [2] | [4] | [5]

COc1cc(C(=O)Nc2c(Cl)cc3c(Br)n[nH]c3c2C(=O)NC2(C3CC3)CC2)n(-c2ncccc2Cl)n1 [P.64, 3-bromo-5-chloro-6-{[2-(3-chloro-pyridin-2-yl)-5-methoxy-2H-pyrazole-3-carbonyl]-amino}-1H-indazole-7-carboxylic acid bicyclopropyl-1-ylamide]
> 80%: [6] | [2] | [4] | [5]

Cc1cc2cn[nH]c2c(C(=O)NC(C)C)c1NC(=O)c1cc(Br)nn1-c1ncccc1Cl [P.65, 6-{[5-bromo-2-(3-chloro-pyridin-2-yl)-2H-pyrazole-3-carbonyl]-amino}-5-methyl-1H-indazole-7-carboxylic acid isopropylamide]
> 80%: [6] | [7] | [3]

CC(C)NC(=O)c1c(NC(=O)c2cc(C(F)(F)F)nn2-c2ncccc2Cl)c(Cl)cc2c(Br)n[nH]c12 [P.67]
not listed: [1] | [7]
> 80%: all other assays above

O=C(NC1(C2CC2)CC1)c1c(NC(=O)c2cc(C(F)(F)F)nn2-c2ncccc2Cl)c(Cl)cc2c(Br)n[nH]c12 [P.68]
not listed: [1] | [7]
> 80%: all other assays above

Cc1cc2cn[nH]c2c(C(=O)NC2(C3CC3)CC2)c1NC(=O)c1cc(Br)nn1-c1ncccc1Cl [P.71, 6-{[5-bromo-2-(3-chloro-pyridin-2-yl)-2H-pyrazole-3-carbonyl]-amino}-5-methyl-1H-indazole-7-carboxylic acid bicyclopropyl-1-ylamide]
> 80%: [6] | [7] | [3] | [4]
